The source of these data is patent US6329389A, “Amine compounds, their production and use” (Takeda Chemical Industries, Ltd., priority 1998, dated 2001).

For orientation: IC50 means the midpoint of a concentration-inhibition curve. A low value points to greater potency. A word on the inhibition: it is the drop in the measured response relative to a control, in per cent.

Assay [1] deals with T1, human somatostatin receptor protein subtype 2 (SSTR2) (Homo sapiens, UniProt P30874).
T1 construct: expressed in transfected cells; host or cells: CHO (dhfr-) cells, strain SSTR2-HS5-9
Kind of assay: Binding inhibition of 125I-somatostatin-14, IC50, SSTR2 membrane fraction. The settings on record: 125I-somatostatin-14, CHO cell membrane fraction, 25° C., 60 minutes.

In assay [2] the target is T2, human somatostatin receptor protein subtype 3 (SSTR3) (Homo sapiens, UniProt P32745).
T2 construct: expressed in transfected cells; host or cells: CHO (dhfr-) cells, strain SSTR3-15-19
Kind of assay: Binding inhibition of 125I-somatostatin-14, IC50, SSTR3 membrane fraction. The settings on record: 125I-somatostatin-14, CHO cell membrane fraction, 25° C., 60 minutes.

The test system of a further assay is rat astrocyte. Kind of assay: Inhibitory effect on forskolin-stimulated accumulation of cAMP in rat astrocyte. It counts as cell-based. Here is the method:
Inhibitory effect on forskolin-stimulated accumulation of cAMP in rat astrocyte
For measurement of the accumulated intracellular adenosine 3',5'-monophosphate (cAMP), newborn rat astrocytes prepared in accordance with the method of Mc carthy, K. D. et al. [Cell Biology, 85, 890-920, 1980] were proliferated in 24-well plate until they were confluent. Said cells were washed twice with 1 ml of Medium A [Dulbecco's Modified Eagle Medium (DMEM), 20 mM 2-[4-(2-hydroxyethyl)-1-piperazinyl]ethanesulfonic acid (HEPES) (pH 7.5), 0.2% bovine serum albumin and 0.2 mM 3-isobutyl-1-methylxanthine (IBMX)]. The medium A was placed in wells each in a quantity of 400 μl and incubated at 37° C. for an hour. […] The cells were washed twice with 1 ml of Medium A. 500 μl of Medium A and 100 μl of a 20% aqueous perchloric acid solution were placed in each well and left standing for20 minutes at 4° C. to lyse the cells. The lyzate was placed in an Eppendorf's tube and centrifuged (15.000 rpm, 10 minutes). The supernatant was placed in another Eppendorf's tube in quantity of 500 μl and neutralized with 60 mM of a HEPES aqueous solution containing 1.5 M of potassium chloride. The content of cAMP in this extract was determined by the Amersham kit (cAMP EIA system).

Assay [3] addresses human somatostatin receptor protein subtype 4 (hSSTR4). Description: Binding inhibition of 125I-somatostatin-14, IC50, SSTR4 membrane fraction. The settings on record: 125I-somatostatin-14, human SSTR4 CHO cell membrane fraction, 25° C., 60 minutes.
The target in assay [4] is T3, rat somatostatin receptor protein subtype 4 (rSSTR4) (Rattus norvegicus, UniProt P30937).
T3 construct: expressed in transfected cells; host or cells: CHO (dhfr-) cells, strain rSSTR4-20-25
Kind of assay: Binding inhibition of 125I-somatostatin-14, IC50, rat SSTR4 membrane fraction. The settings on record: 125I-somatostatin-14, rat SSTR4 CHO cell membrane fraction, 25° C., 60 minutes.

Structures can show the parent of a compound that is named as a salt.

T1 sequence (P30874 whole entry): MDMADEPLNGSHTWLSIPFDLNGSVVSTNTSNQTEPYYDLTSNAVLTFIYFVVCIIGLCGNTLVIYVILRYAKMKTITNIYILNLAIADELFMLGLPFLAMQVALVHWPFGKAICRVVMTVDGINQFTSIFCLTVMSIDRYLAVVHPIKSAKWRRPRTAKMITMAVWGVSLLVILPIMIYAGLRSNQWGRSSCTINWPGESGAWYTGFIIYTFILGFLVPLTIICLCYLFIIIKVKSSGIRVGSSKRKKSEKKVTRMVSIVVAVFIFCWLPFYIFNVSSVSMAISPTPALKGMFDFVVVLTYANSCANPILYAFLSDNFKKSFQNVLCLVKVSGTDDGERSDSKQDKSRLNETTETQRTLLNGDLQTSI
T2 sequence (P32745 whole entry): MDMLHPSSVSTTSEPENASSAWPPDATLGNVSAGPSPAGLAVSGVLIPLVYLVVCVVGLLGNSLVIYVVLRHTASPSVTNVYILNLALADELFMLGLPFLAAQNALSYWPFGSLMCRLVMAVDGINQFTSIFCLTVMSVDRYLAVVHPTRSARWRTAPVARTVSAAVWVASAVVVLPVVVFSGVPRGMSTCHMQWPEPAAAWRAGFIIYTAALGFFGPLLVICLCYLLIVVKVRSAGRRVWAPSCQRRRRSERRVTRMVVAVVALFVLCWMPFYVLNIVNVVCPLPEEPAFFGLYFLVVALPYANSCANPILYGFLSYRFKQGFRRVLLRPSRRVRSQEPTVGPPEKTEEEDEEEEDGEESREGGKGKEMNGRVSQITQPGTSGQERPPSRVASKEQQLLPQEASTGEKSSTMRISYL
T3 sequence (P30937 whole entry): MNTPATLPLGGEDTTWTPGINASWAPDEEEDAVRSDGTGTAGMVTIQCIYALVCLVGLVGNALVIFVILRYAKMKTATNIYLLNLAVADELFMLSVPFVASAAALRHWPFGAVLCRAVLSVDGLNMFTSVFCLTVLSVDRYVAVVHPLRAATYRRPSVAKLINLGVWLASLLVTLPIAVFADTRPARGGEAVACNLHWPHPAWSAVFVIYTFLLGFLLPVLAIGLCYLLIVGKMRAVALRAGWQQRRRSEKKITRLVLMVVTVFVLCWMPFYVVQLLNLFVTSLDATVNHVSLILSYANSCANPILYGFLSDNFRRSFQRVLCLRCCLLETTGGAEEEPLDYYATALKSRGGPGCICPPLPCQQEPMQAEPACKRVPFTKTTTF

Consider `CN(C)CC1Cc2ccccc2N(C(=O)[C@@H](Cc2c[nH]c3ccccc23)NC(=O)N2CCN(c3ccccc3)CC2)C1` (stereo partly drawn) [Example 88, 3-(R,S)-(N,N-Dimethylamino)methyl-1-[3-(indol-3-yl)-2-[(R)-(4-phenylpiperazin-1-yl)]carbonylaminolpropanoyl]-1,2,3,4-tetrahydroquinoline], for which the 50% inhibitory concentration (IC50) in assay [1] turned out to be 9 nM; in assay [2], 0.8 nM.
For the compound “Somatostatin-14: Somatostatin-14, the reference peptide in the rat astrocyte cAMP test [reference compound]”, in the assay on rat astrocyte (compound 10 nM, forskolin 10 μM, rat astrocytes, 37° C., an hour), the “inhibition of the intracellular accumulation of cAMP at the time of stimulation by forskolin” value came out at 83%.
Turning to `O=C(CCc1nc(-c2cc3ccccc3o2)no1)N1CC(CN2CCCC2)Cc2ccccc21` (stereo not drawn) [Example 56, 1-[3-(3-(2-Benzofuranyl)-1,2,4-oxadiazol-5-yl]propanoyl]-3-(pirrolidin-1-yl)methyl-1,2,3,4-tetrahydroquinoline oxalate], the half-maximal inhibitory concentration (IC50) is 7 nM in assay [3] and 10 nM in assay [4]. Moreover, in the assay with rat astrocyte (Astrocyte, compound 10 nM, forskolin 10 μM, rat astrocytes, 37° C., an hour, read-out: inhibition of the intracellular accumulation of cAMP at the time of stimulation by forskolin), the inhibition at 0.01 µM worked out at 43%. In the assay on rat astrocyte (conclusion from cAMP test in rat astrocytes), the “agonistic effect on the rat somatostatin receptor” value is given as “has an agonistic effect”.
In the case of `CN(C)CC1Cc2ccccc2N(C(=O)[C@@H](Cc2c[nH]c3ccccc23)NC(=O)N2CCC(n3c(=O)[nH]c4ccccc43)CC2)C1` (stereo partly drawn) [Example 89, 3-(R,S)-(N,N-Dimethylamino)methyl-1-[3-(indol-3-yl)-2-[(R)-4-(2-oxo-2,3-dihydro-1H-benzimidazol-1-yl]piperidinocarbonylamino]propanoyl]-1,2,3,4-tetrahydroquinoline], the 50% inhibitory concentration (IC50) is 3 nM in assay [1] and 2 nM in assay [2].
